Test results reported in patent publication US8685970B2, “Quinolines and related analogs as sirtuin modulators” (GlaxoSmithKline, LLC, priority 2008, dated 2014).

Molecular target: T1, SIRT1 (Homo sapiens, UniProt Q96EB6)
T1 sequence (Q96EB6 1-747): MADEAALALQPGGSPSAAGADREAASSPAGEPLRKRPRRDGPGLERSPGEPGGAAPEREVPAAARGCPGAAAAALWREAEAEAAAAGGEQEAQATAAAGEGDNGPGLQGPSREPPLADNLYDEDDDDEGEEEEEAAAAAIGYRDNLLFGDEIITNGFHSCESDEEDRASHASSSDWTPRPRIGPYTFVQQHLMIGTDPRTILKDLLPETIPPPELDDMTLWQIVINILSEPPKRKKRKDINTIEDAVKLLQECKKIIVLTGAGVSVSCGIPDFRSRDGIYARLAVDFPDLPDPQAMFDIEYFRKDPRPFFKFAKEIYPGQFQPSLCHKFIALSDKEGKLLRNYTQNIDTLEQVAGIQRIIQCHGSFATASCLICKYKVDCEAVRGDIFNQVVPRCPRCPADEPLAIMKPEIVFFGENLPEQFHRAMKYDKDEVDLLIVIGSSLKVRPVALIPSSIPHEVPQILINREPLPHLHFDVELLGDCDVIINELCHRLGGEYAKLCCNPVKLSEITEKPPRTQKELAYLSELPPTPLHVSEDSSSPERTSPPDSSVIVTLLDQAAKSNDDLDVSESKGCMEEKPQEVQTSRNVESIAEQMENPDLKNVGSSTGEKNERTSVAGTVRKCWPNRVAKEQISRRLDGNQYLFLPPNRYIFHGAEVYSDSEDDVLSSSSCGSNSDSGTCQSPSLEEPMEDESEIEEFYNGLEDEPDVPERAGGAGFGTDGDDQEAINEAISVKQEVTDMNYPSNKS
Assay: Mass spectrometry based SIRT1 deacetylation assay (activation)
Format: biochemical
Details: 10 nM SIRT1, 0.5 μM peptide substrate, 120 μM βNAD+, 25 min at 25° C.
How it was run: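 Activation reported as EC1.5, the compound concentration producing 150% of DMSO-control deacetylation, plus maximum fold activation. Readout is mass-spectrometric ratio of deacetylated to acetylated p53-based peptide (0.5 μM) after 25 min, 25 °C, with 120 μM βNAD+ and 10 nM His-tagged human SIRT1, pH 8.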

% Fold Act. (percent maximum fold activation) | EC1.5 (concentration of test compound that results in 150% activation of SIRT1) | Compound
A (Fold activation >200%) | A (EC1.5<1.0 uM) | Cc1csc(NC(=O)c2cccc3ccc(-c4cccc(C(F)(F)F)c4)nc23)n1 [Compound 27]
– | C (EC1.5>25 uM) | O=C(Nc1nc(-c2ccccc2)cs1)c1cccc2ccc(-c3cccc(C(F)(F)F)c3)nc12 [Compound 54]
A (Fold activation >200%) | A (EC1.5<1.0 uM) | O=C(Nc1cccc2ccc(-c3cccc(CN4CCOCC4)c3)nc12)c1cscn1 [Compound 120]
A (Fold activation >200%) | B (EC1.5 1-25 uM) | O=C(Nc1nccs1)c1cccc2ccc(-c3ccccc3C(F)(F)F)nc12 [Compound 84]
– | C (EC1.5>25 uM) | O=C(Nc1cccc2ccc(-c3ccccc3)nc12)c1cccc(N2CCCC2)c1 [Compound 1]
A (Fold activation >200%) | A (EC1.5<1.0 uM) | O=C(Nc1nc(CN2CCCC2)cs1)c1cccc2ccc(-c3cccc(C(F)(F)F)c3)nc12 [Compound 147]
A (Fold activation >200%) | A (EC1.5<1.0 uM) | Cc1cnc(NC(=O)c2cccc3ccc(-c4cccc(N5CCOCC5)c4)nc23)s1 [Compound 239]
A (Fold activation >200%) | A (EC1.5<1.0 uM) | O=C(Nc1cccc(OC[C@@H](O)CO)c1)c1cccc2ccc(-c3cccc(C(F)(F)F)c3)nc12 [Compound 207]
B (Fold Activation <200%) | B (EC1.5 1-25 uM) | O=C(NCc1ccccn1)c1cccc2ccc(-c3cccc(C(F)(F)F)c3)nc12 [Compound 35]
– | C (EC1.5>25 uM) | Cc1cncc(-c2ccc3cccc(C(=O)Nc4nccs4)c3n2)c1 [Compound 242]
B (Fold Activation <200%) | B (EC1.5 1-25 uM) | O=C(O)c1ccc(NC(=O)c2cccc3ccc(-c4cccc(C(F)(F)F)c4)nc23)o1 [Compound 90]
– | C (EC1.5>25 uM) | O=S(=O)(Nc1cccc2ccc(-c3cccc(OC(F)(F)F)c3)nc12)N1CCCC1 [Compound 112]
A (Fold activation >200%) | A (EC1.5<1.0 uM) | O=C(Nc1ccccn1)c1cccc2ccc(-c3cccc(C(F)(F)F)c3)nc12 [Compound 30]
A (Fold activation >200%) | B (EC1.5 1-25 uM) | O=C(NC1CCOC1=O)c1cccc2ccc(-c3cccc(C(F)(F)F)c3)nc12 (stereo not drawn) [Compound 38]
A (Fold activation >200%) | A (EC1.5<1.0 uM) | O=C(Nc1ccnc(N2CCOCC2)c1)c1cccc2ccc(-c3cccc(C(F)(F)F)c3)nc12 [Compound 321]
A (Fold activation >200%) | A (EC1.5<1.0 uM) | O=C(Nc1ccncc1)c1cccc2ccc(-c3cccc(C(F)(F)F)c3)nc12 [Compound 32]
A (Fold activation >200%) | A (EC1.5<1.0 uM) | O=C(Nc1nc(CN2CCCC2)cs1)c1cccc2ccc(-c3cccc(C(F)F)c3)nc12 [Compound 261]
A (Fold activation >200%) | A (EC1.5<1.0 uM) | O=C(Nc1cccc(OCC(O)CO)c1)c1cccc2ccc(-c3cccc(C(F)(F)F)c3)nc12 (stereo not drawn) [Compound 151]
B (Fold Activation <200%) | B (EC1.5 1-25 uM) | Cc1cc(NC(=O)c2cccc3ccc(-c4cccc(C(F)(F)F)c4)nc23)no1 [Compound 73]
– | C (EC1.5>25 uM) | Cc1cnc(NC(=O)c2cccc3ccc(-c4ccnc(C(F)F)c4)nc23)s1 [Compound 307]
B (Fold Activation <200%) | A (EC1.5<1.0 uM) | O=C(Nc1nccs1)c1cccc2ccc(-c3ccnc(N4CCOCC4)c3)nc12 [Compound 209]

The next lines start with the molecule.

Compound | % Fold Act. (percent maximum fold activation) | EC1.5 (concentration of test compound that results in 150% activation of SIRT1)
O=C(Nc1nccs1)c1cccc2cc(C(F)(F)F)c(-c3ccccc3)nc12 [Compound 192] | – | C (EC1.5>25 uM)
Fc1c(-c2ccc3cccc(NCc4cccnc4)c3n2)cccc1C(F)(F)F [Compound 165] | – | C (EC1.5>25 uM)
O=C(Nc1cccc2ccc(-c3ccc(O)cc3)nc12)c1cscn1 [Compound 186] | A (Fold activation >200%) | B (EC1.5 1-25 uM)
Cn1ccc(C(=O)Nc2cccc3ccc(-c4cncc(F)c4)nc23)n1 [Compound 284] | – | C (EC1.5>25 uM)
O=C(Nc1cccc2ccc(-c3ccccc3O)nc12)c1cscn1 [Compound 174] | A (Fold activation >200%) | B (EC1.5 1-25 uM)
O=C(Nc1ccncn1)c1cccc2ccc(-c3ccc(C(F)(F)F)cc3)nc12 [Compound 99] | – | C (EC1.5>25 uM)
c1cncc(CNc2cccc3ccc(-c4cccc(N5CCOCC5)c4)nc23)c1 [Compound 172] | – | C (EC1.5>25 uM)
O=C(Nc1cccc2ccc(-c3cccc(C(F)(F)F)c3)nc12)c1cnccn1 [Compound 4] | B (Fold Activation <200%) | A (EC1.5<1.0 uM)
FC(F)(F)c1cccc(-c2ccc3cccc(CNC4CCCC4)c3n2)c1 [Compound 143] | – | C (EC1.5>25 uM)
O=C(Nc1cccc2ccc(-c3cccc(C(F)(F)F)c3)nc12)c1csc(-c2ccccc2)n1 [Compound 206] | – | C (EC1.5>25 uM)
O=C(Nc1cccc(OC2CCNC2)c1)c1cccc2ccc(-c3cccc(C(F)(F)F)c3)nc12 (stereo not drawn) [Compound 257] | A (Fold activation >200%) | A (EC1.5<1.0 uM)
Cn1ccc(C(=O)Nc2cccc3ccc(-c4cccc(C(F)(F)F)c4)nc23)n1 [Compound 245] | A (Fold activation >200%) | A (EC1.5<1.0 uM)
FC(F)(F)Oc1cccc(-c2ccc3cccc(NCc4ccccn4)c3n2)c1 [Compound 65] | – | C (EC1.5>25 uM)
CS(=O)(=O)c1cccc(-c2ccc3cccc(NCc4cccnc4)c3n2)c1 [Compound 163] | – | C (EC1.5>25 uM)
O=C(Nc1cccc2ccc(-c3cccc(C(F)(F)F)c3)nc12)c1cocn1 [Compound 195] | B (Fold Activation <200%) | A (EC1.5<1.0 uM)
O=C(Nc1cccnc1)c1cccc2cnc(-c3cccc(C(F)(F)F)c3)nc12 [Compound 282] | – | C (EC1.5>25 uM)
O=C(Nc1ccncn1)c1cccc2ccc(-c3cccnc3)nc12 [Compound 208] | – | C (EC1.5>25 uM)
Cc1cc(-c2ccc3cccc(NC(=O)c4cscn4)c3n2)ccn1 [Compound 197] | A (Fold activation >200%) | A (EC1.5<1.0 uM)
COc1cccc(C(=O)Nc2cccc3ccc(-c4cccc(C(F)(F)F)c4)nc23)c1 [Compound 205] | B (Fold Activation <200%) | B (EC1.5 1-25 uM)
O=C(Nc1cccc2ccc(-c3cc(F)cc(C(F)(F)F)c3)nc12)c1cscn1 [Compound 169] | – | C (EC1.5>25 uM)
O=C(Nc1ccccn1)c1cccc2ncc(-c3cccc(C(F)(F)F)c3)nc12 [Compound 129] | B (Fold Activation <200%) | A (EC1.5<1.0 uM)
O=C(Nc1cccc2ccc(-c3ccccc3)nc12)c1cscn1 [Compound 2] | A (Fold activation >200%) | B (EC1.5 1-25 uM)
